{
  "source": "patent US9579319B2",
  "about": "(Redx Pharma PLC, priority 2013, dated 2017)",
  "key": {"[1]": {"test_system": "Hedgehog signalling pathway", "assay": "Gli-reporter NIH3T3 luciferase assay (Hedgehog pathway inhibition)", "type": "cell-based", "conditions": "NIH3T3, Gli-reporter NIH-3T3 cells, recombinant mouse sonic hedgehog, 24 hours, luminescence", "in_short": "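Mouse NIH3T3 cells with Gli-responsive luciferase reporter, pre-treated 1 h with compound (top final concentration 1 μM, 0.1% DMSO) in 0.5% calf serum medium. Then stimulated with recombinant mouse sonic hedgehog for 24 h at 37° C. Luminescence read-out (OneGLO), triplicates; IC50 reported.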"}, "[2]": {"assay": "Thermodynamic solubility with filtration", "type": "physicochemical", "conditions": "aqueous buffer, thermodynamic from solid, pH 7.4 phosphate buffer (0.1 M), room temperature, filtered", "description": "Thermodynamic Solubility with Filtration\n0.5 mg is weighed into a Mini Uniprep filter vial (Whatman, PVDF, 0.2 μm). 0.5 mL of pH 7.4 phosphate buffer (0.1 M) is dispensed and the vial is shaken at 600 rpm for 24 h at room temperature. At the end of this period, the solution is then filtered and an aliquot of the filtrate is used to create a tenfold dilution. Standards are prepared by serially diluting a 1250 μg/mL DMSO stock solution of the compound to 125 and 2.5 μg/mL, in Acetonitrile/Water (50:50, v/v). The concentration of the filtrate and tenfold dilution is measured by detection against the two calibration standards."}, "[3]": {"conditions": "read-out: Category (Hedgehog pathway inhibition activity, IC50)"}},
  "note": "Like-named read-outs stand apart in the source and are kept apart here.",
  "data": [
    {"smiles": "CN(C(=O)Nc1ccc(F)cc1C(F)(F)F)C1CCN(c2nnc(-c3ccnn3C)c3ccncc23)CC1", "note": "[Example 112, 3-[4-fluoro-2-(trifluoromethyl)phenyl]-1-methyl-1-[1-[1-(2-methylpyrazol-3-yl)pyrido[3,4-d]pyridazin-4-yl]-4-piperidyl]urea]", "values": [
      {"measurement": "IC50", "setting": "[1]; read-out: Gli Luc nM (IC50)", "value": 1.26, "unit": "nM"},
      {"measurement": "IC50", "setting": "[1]; read-out: Gli luc IC50", "value": "< 10", "unit": "nM"},
      {"measurement": "solubility at 24 h", "setting": "[2]", "value": 399, "unit": "µg/mL"}
    ]},
    {"smiles": "Cc1ccccc1CNC1CCN(c2nnc(-c3ccnn3C)c3ccccc23)CC1", "note": "[Example 170, 1-[4-(2-methylpyrazol-3-yl)phthalazin-1-yl]-N-(o-tolylmethyl)piperidin-4-amine]", "values": [
      {"measurement": "IC50", "setting": "[1]; read-out: Gli luc IC50", "value": "10 to 200", "unit": "nM"},
      {"measurement": "solubility at 24 h", "setting": "[2]", "value": 1190, "unit": "µg/mL"}
    ]},
    {"smiles": "Cc1c(-c2ccnn2C)nnc(N2CCC(NC(=O)NC(C)(C)C)CC2)c1C", "note": "[Example 116, 1-tert-butyl-3-[1-[4,5-dimethyl-6-(2-methylpyrazol-3-yl)pyridazin-3-yl]-4-piperidyl]urea]", "values": [
      {"measurement": "IC50", "setting": "[1]; read-out: Gli luc IC50", "value": "10 to 200", "unit": "nM"},
      {"measurement": "solubility at 24 h", "setting": "[2]", "value": 1260, "unit": "µg/mL"}
    ]},
    {"smiles": "Cn1nccc1-c1nnc(N2CCC(NCc3cnccc3C(F)(F)F)CC2)c2ccccc12", "note": "[Example 156, 1-[4-(2-methylpyrazol-3-yl)phthalazin-1-yl]-N-[[4-(trifluoromethyl)-3-pyridyl]methyl]piperidin-4-amine]", "values": [
      {"measurement": "IC50", "setting": "[1]; read-out: Gli luc IC50", "value": "< 10", "unit": "nM"},
      {"measurement": "solubility at 24 h", "setting": "[2]", "value": 321, "unit": "µg/mL"}
    ]},
    {"smiles": "Cc1nc(CN(C)C2CCN(c3nnc(-c4ccnn4C)c4ccccc34)CC2)c(C(F)(F)F)o1", "note": "[Example 98, N-methyl-1-[4-(2-methylpyrazol-3-yl)phthalazin-1-yl]-N-[[2-methyl-5-(trifluoromethyl)oxazol-4-yl]methyl]piperidin-4-amine]", "values": [
      {"measurement": "IC50", "setting": "[1]; read-out: Gli luc IC50", "value": "10 to 200", "unit": "nM"},
      {"measurement": "solubility at 24 h", "setting": "[2]", "value": 106, "unit": "µg/mL"}
    ]},
    {"smiles": "Cc1nc(CN(C)C2CCN(c3nnc(-c4ccnn4C)c(C)c3C)CC2)c(C(F)(F)F)o1", "note": "[Example 97, 1-[4,5-dimethyl-6-(2-methylpyrazol-3-yl)pyridazin-3-yl]-N-methyl-N-[[2-methyl-5-(trifluoromethyl)oxazol-4-yl]methyl]piperidin-4-amine]", "values": [
      {"measurement": "IC50", "setting": "[1]; read-out: Gli luc IC50", "value": "10 to 200", "unit": "nM"},
      {"measurement": "solubility at 24 h", "setting": "[2]", "value": 1010, "unit": "µg/mL"}
    ]},
    {"smiles": "COc1ccc(CNC2CCN(c3nnc(-c4ccnn4C)c4ccccc34)CC2)cc1", "note": "[Example 71, N-[(4-methoxyphenyl)methyl]-1-[4-(2-methylpyrazol-3-yl)phthalazin-1-yl]piperidin-4-amine]", "values": [
      {"measurement": "IC50", "setting": "[1]; [3]", "value": "200 to 2000", "unit": "nM"}
    ]},
    {"smiles": "Cn1nccc1-c1nnc(N2CCC(NC(=O)Nc3ccc(F)cc3F)CC2)c2ccccc12", "note": "[Example 8]", "values": [
      {"measurement": "IC50", "setting": "[1]; [3]", "value": "< 10", "unit": "nM"},
      {"measurement": "IC50", "setting": "[1]; read-out: Gli Luc nM (IC50)", "value": 0.99, "unit": "nM"}
    ]},
    {"smiles": "Cn1nccc1-c1nnc(N2CCC(NCc3ccc(F)cc3C(F)(F)F)CC2)c2ccccc12", "note": "[Example 79, N-[[4-fluoro-2-(trifluoromethyl)phenyl]methyl]-1-[4-(2-methylpyrazol-3-yl)phthalazin-1-yl]piperidin-4-amine]", "values": [
      {"measurement": "IC50", "setting": "[1]; [3]", "value": "< 10", "unit": "nM"},
      {"measurement": "IC50", "setting": "[1]; read-out: Gli Luc nM (IC50)", "value": 7.85, "unit": "nM"}
    ]}
  ]
}
